Entries after “also recorded” stand apart in the source; their conditions may differ.
Assays:
E11.5 AGM cells [1] = assay: E11.5 AGM explant culture with drugs followed by colony formation (CFU) assay; type: cell-based, mouse; conditions: for multipotent GEMM colony formation: E11.5 AGM, 24-48 hr incubation, CFU assay
Text: We first coated each well of the 6-well FlexCell plate using Fibronectin/Matrigel and allowed it to settle on the nylon membrane of each well. Then we seeded two embryo equivalent (e.e.) single-cell suspension of AGM (composed of endothelial, hemogenic endothelial, hematopoietic, vascular smooth muscle (VSMCs), and mesenchymal stromal cells)-derived cells in each FlexCell well, with a coating of Fibronectin/Matrigel allows AGM-derived (sorted or not sorted) cells to adhere to the bottom of the well. We filled each well with an explant culture medium containing Myelocult and growth factors (27, 28). We put these 6-well plates into the FlexCell machine and applied cyclic strain (4-12%) for 6-48 hours using customized pins hooked to the bottom of each well. We inserted the customized rubber gasket in several wells to simulate static control conditions as well. Next we added drugs modulating the stretch-activated ion channel signaling in a few wells undergoing the external cyclic strain. After 6-48 hours of external stimulation of circumferential stretch, we harvested AGM-derived cells from the FlexCell plate and analyzed their capacity to make hematopoietic cells: (I) We performed CFU assays using Methocult media to count multi-potential granulocyte, erythroid, macrophage, megakaryocyte progenitors (GEMM), granulocyte-macrophage progenitors (CFU-GM, CFU-M, CFU-G), and erythroid progenitor (BFU-E) colonies after seven days of seeding AGM derived sorted cells. (II) We analyzed the expression levels of Runx1, c-Myb, Lmo2, Gata2, CD144, and Gata1. (III) We also stained AGM-derived cells with fluorescently labeled conjugated antibodies to measure the expression levels of Flk1, CD144, CD41, c-Kit, & CD45.2. (IV) We injected two e.e. AGM (donor; CD45.2)-derived cells in sub-lethally irradiated CD45.1 (SJL; recipient) mice. We analyzed long-term engraftment and multi-lineage reconstitution potential of donor cells for 16 weeks followed by serial-transplantation to differentiate between HSCs and hemogenic endothelial cells. (V) We also performed limiting dilution assays to analyze the number of HSCs generated per AGM-derived cell following 2D circumferential stretch.
Using a customized bioreactor based on organ-on-a-chip (FIG. 4), we applied 2D circumferential stretch (6% cyclic strain, 24 hr) to a single cell suspension of two e.e. E11.5 AGM cells. In parallel, we also incubated two e.e. E11.5 AGM static cells with Trpv4 agonist (GSK101 (29)).
(§1) In mice, the first heartbeat occurs at E8.25, and HSCs begin to emerge from AGM-derived hemogenic endothelium between E10.5-E12.5 (10, 11). To investigate whether circumferential stretch-activated ion channels are also involved in mammalian HSC emergence, we incubated E11.5 AGM with non-specific SAC channels inhibitor (GdCl3) and pan-Trpv channel inhibitor (Ruthenium Red) in explant culture media and analyzed their hematopoietic CFU capacity, and the expression of endothelial and hematopoietic genes (CD41, CD45.2, c-Kit, Flk1, CD144).
To further investigate the influence of Trpv4 on HSC formation from hemogenic endothelial cells, we incubated E11.5 AGM (28) with Trpv4 agonist (GSK101, 4α-PDD (44)) and Trpv4 antagonist (GSK 205) for 24-48 hr (FIG. 9).

zebrafish embryos = zebrafish embryos incubated with stretch-activated ion channel modulators, qRT-PCR and WISH for HSPC surrogate markers; type: in vivo; conditions: control zebrafish embryos, incubation between 19-42 hpf
Text: An impact of circumferential stretch is communicated by member(s) of the […] superfamily, Trp-superfamily, ENaC/DEG superfamily, and/or Piezo family (36-39). […] However, the direct role of Trpv4 in HSC emergence has not been established. We therefore treated zebrafish embryos with a pan-inhibitor of Trpv channels (Ruthenium RED; (41)), Trpv4 antagonist (GSK 205; (42)), and Trpv4 agonist (GSK101; (29)) between 19-42 hpf, followed by qRT-PCR and WISH for HSPC surrogate markers (c-myb and runx1).

E11.5 AGM = E11.5 AGM explant culture, expression of endothelial and hematopoietic genes; type: cell-based, mouse; conditions: data not shown
Description: as §1

cdh5-silenced embryos = assay: cdh5-silenced zebrafish embryos incubated with NOS inhibitor, HSC formation; type: in vivo; conditions: incubation between 19-48 hpf
Text: In zebrafish the heart begins to beat around 23 hpf, the blood circulation begins at approximately 24-26 hpf, and definitive HSCs emerge from hemogenic endothelial cells in the AGM region between 26-48 hpf (11). Blood flow generates shear-stress on the ventral wall of the aortic endothelium and stimulates the endothelial-to-HSC transition by activating the NOS pathway (12, 13). When we performed time-lapse confocal imaging of both the control and the cdh5-silenced cd41:eGFP:flk1:mCherry embryos between 30-48 hpf, we found cdh5-silenced cd41:eGFP^low HSCs emerging from flk1:mCherry^+ endothelial cells despite early circulation arrest (FIG. 1A-B). In addition, we incubated cdh5-silenced embryos in the presence of L-NAME, a pharmacological inhibitor of NOS (12), between 19-48 hpf. […] Thus, HSCs would emerge from hemogenic endothelial cells, despite impaired circulation and NOS inhibition. These striking data led us to investigate shear stress-independent biomechanical and molecular mechanisms responsible for the endothelial transition to HSCs.

E11.5 AGM cells [2] = assay: transplant of treated E11.5 AGM cells into irradiated recipient mice, engraftment and multi-lineage reconstitution; type: in vivo, mouse; conditions: 2 e.e. AGM per recipient
Text: We first coated each well of the 6-well FlexCell plate using Fibronectin/Matrigel and allowed it to settle on the nylon membrane of each well. Then we seeded two embryo equivalent (e.e.) single-cell suspension of AGM (composed of endothelial, hemogenic endothelial, hematopoietic, vascular smooth muscle (VSMCs), and mesenchymal stromal cells)-derived cells in each FlexCell well, with a coating of Fibronectin/Matrigel allows AGM-derived (sorted or not sorted) cells to adhere to the bottom of the well. We filled each well with an explant culture medium containing Myelocult and growth factors (27, 28). […] After 6-48 hours of external stimulation of circumferential stretch, we harvested AGM-derived cells from the FlexCell plate and analyzed their capacity to make hematopoietic cells: (I) We performed CFU assays using Methocult media to count multi-potential granulocyte, erythroid, macrophage, megakaryocyte progenitors (GEMM), granulocyte-macrophage progenitors (CFU-GM, CFU-M, CFU-G), and erythroid progenitor (BFU-E) colonies after seven days of seeding AGM derived sorted cells. (II) We analyzed the expression levels of Runx1, c-Myb, Lmo2, Gata2, CD144, and Gata1. […] We analyzed long-term engraftment and multi-lineage reconstitution potential of donor cells for 16 weeks followed by serial-transplantation to differentiate between HSCs and hemogenic endothelial cells. […]

[3] = tested on: human umbilical vein endothelial cells (HUVEC); assay: incubation of HUVEC with Trpv4 agonist, intracellular calcium levels; type: cell-based
sih-silenced embryos = assay: silent heart (sih)-silenced zebrafish embryos incubated with trpv4 agonist, HSPC formation; type: in vivo
Description: Silent heart cardiac troponin (sih, tnnt2)-mutant embryos lack heartbeat and blood circulation (43). […] Because heartbeat-mediated pulse pressure on blood vessels stimulates HSC emergence, we studied whether the activation of the Trpv4 ion channels triggers HSC formation in the absence of a heartbeat and blood circulation. We therefore incubated sih-silenced embryos (casper or cd41:eGFP::flk1:mCherry) with trpv4 agonist (GSK101) between 19-42 hpf.

## [Cl][Gd]([Cl])[Cl] [GdCl3, Gadolinium Chloride]
E11.5 AGM cells [1]; listed as GdC13
  multipotent GEMM colony formation: attenuates GEMM formation; also recorded: reduced
Zebrafish embryos
  expression of HSPC surrogate markers runx1 and c-myb: reduced
E11.5 AGM
  expression of hematopoietic genes: reduced

## COC(=O)[C@@H](N)CCCNC(=N)N[N+](=O)[O-] [L-NAME]
cdh5-silenced embryos
  HSC formation (zf-runx1 and zf-c-Myb expression): did not abolish HSC formation

## CCCCCCOC(=O)[C@]1(O)C[C@@H]2O[C@@]1(C)n1c3ccccc3c3c4c(c5c6ccccc6n2c5c31)C(=O)NC4 [KT5720]
E11.5 AGM cells [1]; E11.5 AGM explant culture, together with Trpv4 agonist GSK101, 24 hr
  Trpv4 agonist-mediated increase in multipotent GEMM formation: attenuated; also recorded: attenuates stimulating impact of Trpv4 agonist

## CC(C)C[C@H](NC(=O)c1cc2ccccc2s1)C(=O)N1CCN(C(=O)[C@H](CO)NS(=O)(=O)c2ccc(Cl)cc2Cl)CC1 [GSK101]
E11.5 AGM cells [2]; after 8 weeks
  percentage of engraftment (CD45.2+ peripheral blood chimerism): Increase; also recorded: increased the percentage of engraftment
E11.5 AGM cells [2]; peripheral blood after 8 weeks
  multi-lineage reconstitution: increased
E11.5 AGM cells [1]
  multipotent GEMM colony formation: Increase in GEMM; also recorded: stimulates multipotent progenitor (GEMM) formation; also recorded: enhanced GEMM formation; also recorded: stimulated multipotent GEMM formation
[3]
  [Ca+2]i levels: increase in [Ca^+2]i levels
sih-silenced embryos; sih-silenced cd41-eGFP:flk1-mCherry embryos
  formation of cd41:eGFP+ HSCs: rescues the formation of cd41:eGFP^+ HSCs
sih-silenced embryos; sih-silenced embryos, 19-42 hpf, WISH and qRT-PCR
  HSPC formation (mRNA expression levels of runx1 and c-myb): rescues hematopoietic stem progenitor cell (HSPC) formation
Zebrafish embryos
  expression of HSPC surrogate markers runx1 and c-myb: enhances HSPC formation; also recorded: increased the expression of HSPC markers

## CCCCCCCCCC(=O)O[C@@H]1[C@@H](C)[C@@]2(O)[C@@H](C=C(CO)C[C@@]3(O)C(=O)C(C)=C[C@@H]23)[C@@H]2C(C)(C)[C@]12OC(=O)CCCCCCCCC [4α-PDD, 4alpha-phorbol 12,13-didecanoate]
E11.5 AGM cells [1]
  multipotent GEMM colony formation: stimulates multipotent progenitor (GEMM) formation; also recorded: stimulated multipotent GEMM formation

## N.N.N.N.N.N.N.N.N.N.N.N.N.N.[Cl-].[Cl-].[Cl-].[Cl-].[Cl-].[Cl-].[O-2].[O-2].[Ru+3].[Ru+3].[Ru+4] [Ruthenium Red]
E11.5 AGM cells [1]
  multipotent GEMM colony formation: attenuates GEMM formation; also recorded: reduced
Zebrafish embryos
  expression of HSPC surrogate markers runx1 and c-myb: reduction in runx1 and c-myb expression
E11.5 AGM
  expression of hematopoietic genes: reduced

From US11162073B2, “Methods for generating functional hematopoietic stem cells” (The Brigham and Women's Hospital, Inc., priority 2015, dated 2021)
